From patent US20240425486A1, “FUSED BICYCLIC SUBSTITUTED N-(1H-INDOL-7-YL)BENZENESULFONAMIDES AND USES THEREOF” (Triana Biomedicines, Inc., priority 2021, published 2024)

What was measured:
DCAF15/RBM39 = DCAF15/RBM39 (Homo sapiens (Human), UniProt Q14498+Q66K64); assay: AlphaLISA compound-induced DCAF15-RBM39 ternary complex formation; format: binding; conditions: His-tagged DCAF15 complex and biotin-carrying RBM39
Description: Example 7: Quantitative Evaluation of Compound-Induced Ternary Complex Formation Using Amplified Luminescent Proximity Homogeneous Assay
Compound-induced DCAF15-RBM39 ternary complex formation was monitored using AlphaLISA® assays (Perkin Elmer, Waltham, MA). Test compounds were first collected in a 384-well microplate (cat. #781280, Grenier Bio-One, Monroe, NC) as 2 mM stocks in 100% dimethyl sulfoxide (DMSO). These stocks were then serially diluted in DMSO by 3-fold into a new plate (cat. #781280, Grenier Bio-One, Monroe, NC) using a Mosquito HTS dispenser (Mosquito® HTS, SPT Labtech, Boston, MA). 0.2 μL of these diluted stocks were then dispensed into a 384-well Optiplate (cat. #6007290, Perkin Elmer, Waltham, MA) in duplicate wells, to assemble the final assay plate consisting of duplicated dose ranges. Separately, a protein mixture consisting of His-tagged DCAF15 complex and biotin-carrying RBM39, each at 408 nM (2.04×), was prepared in 50 mM HEPES, pH 7.5, 100 mM NaCl, 2 mM MgCl2, 0.1% BSA, 2 mM TCEP, 0.05% Tween-20 (dilution buffer). 9.8 μL of this protein mixture was then mixed with the compounds in the assay plate and incubated for one hour at room temperature. Reaction mixtures with no compounds added were included as negative controls, while a His-tagged and biotinylated GST protein was included to track general assay performance. Nickel Chelate AlphaLISA Acceptor beads (cat. #AL108M, Perkin Elmer, MA) and AlphaScreen Streptavidin Donor beads (cat. #6760002, Perkin Elmer, Waltham, MA) were prepared separately in the dilution buffer as 4× stocks (80 ug/ml). The beads were then added to the assay plate sequentially with incubation at room temperature for 1-2 hours after each addition. Signals were recorded using EnVision 2104 Multilabel Plate Reader (Perkin Elmer, Waltham, MA) and titration curves were generated in GraphPad Prism (7.00, GraphPad, La Jolla, CA).

DCAF15 = DCAF15 (Homo sapiens (Human), UniProt Q66K64); assay: HTRF competition assay, binary interaction with DCAF15; format: binding; conditions: competition with Alexa Fluor 647 tracer
Description: Example 8: Measurement of Binary Interaction Between Compounds and DCAF15 Using Homogeneous Time Resolved Fluorescence (HTRF)
DCAF15 interactions with test compounds were monitored using HTRF competition assays (Cisbio, Bedford, MA). Test compounds were first collected in a 384-well microplate (cat. #781280, Grenier Bio-One, Monroe, NC) as 10 mM stocks in 100% dimethyl sulfoxide (DMSO). A second stock plate (cat. #781280, Grenier Bio-One, Monroe, NC) was prepared through 3-fold serial dilution in DMSO of the afore-mentioned stocks using a Mosquito HTS dispenser (mosquito@ HTS, SPT Labtech, Boston, MA). 0.2 μL of these diluted stocks were then dispensed into a 384-well Optiplate (cat. #6007290, Perkin Elmer, Waltham, MA) in duplicate wells, to assemble the assay plate. The tracer molecule containing an Alexa Fluor 647 probe was prepared in 25 mM HEPES pH 7.5, 100 mM NaCl, 0.1 mg/ml BSA, 0.005% Tween 20, 0.5 mM TCEP (dilution buffer) to 612 nM (2.04×). Separately, His-tagged DCAF15 complex was prepared at 32 nM (4×) in the dilution buffer, and mAb Anti-6His-Eu cryptate Gold (cat. #61H12KLA, Cisbio, Bedford, MA) at 4× dilution in the detection buffer (cat. #61DB9RDF, Cisbio, Bedford, MA). These two solutions were mixed and incubated for 15 min at room temperature. 9.8 μL of the tracer solution and 10 μL of the DCAF15/mAb Anti-6His-Eu cryptate Gold mixture were added sequentially to each well in the assay plate. Reaction mixtures with no DCAF15 added were included as positive controls. The final mixture was incubated for an hour at room temperature and spun down briefly before data collection at 615 nm and 666 nm using EnVision 2104 Multilabel Plate Reader (Perkin Elmer, Bedford, MA). Binding was estimated based on ratiometric analysis and titration curves were generated in GraphPad Prism (7.00, GraphPad, La Jolla, CA).

Chain of DCAF15 (Q66K64 whole entry): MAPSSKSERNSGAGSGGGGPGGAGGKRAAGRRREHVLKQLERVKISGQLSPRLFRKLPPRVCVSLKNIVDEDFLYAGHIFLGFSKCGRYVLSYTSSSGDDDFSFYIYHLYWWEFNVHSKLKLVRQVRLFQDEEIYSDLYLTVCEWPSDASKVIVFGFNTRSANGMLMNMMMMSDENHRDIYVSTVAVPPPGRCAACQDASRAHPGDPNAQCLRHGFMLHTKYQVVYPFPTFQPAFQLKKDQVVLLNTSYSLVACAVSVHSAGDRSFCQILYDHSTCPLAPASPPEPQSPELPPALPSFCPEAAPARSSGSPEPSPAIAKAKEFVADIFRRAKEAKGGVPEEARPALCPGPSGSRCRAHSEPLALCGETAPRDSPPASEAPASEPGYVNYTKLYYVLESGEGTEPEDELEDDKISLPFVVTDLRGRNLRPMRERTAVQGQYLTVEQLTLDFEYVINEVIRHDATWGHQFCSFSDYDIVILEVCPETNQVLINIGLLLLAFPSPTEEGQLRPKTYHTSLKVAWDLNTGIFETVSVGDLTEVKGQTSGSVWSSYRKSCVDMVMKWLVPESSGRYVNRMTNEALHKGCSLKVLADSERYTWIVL
Chain of DCAF15 (Q16531 whole entry partner): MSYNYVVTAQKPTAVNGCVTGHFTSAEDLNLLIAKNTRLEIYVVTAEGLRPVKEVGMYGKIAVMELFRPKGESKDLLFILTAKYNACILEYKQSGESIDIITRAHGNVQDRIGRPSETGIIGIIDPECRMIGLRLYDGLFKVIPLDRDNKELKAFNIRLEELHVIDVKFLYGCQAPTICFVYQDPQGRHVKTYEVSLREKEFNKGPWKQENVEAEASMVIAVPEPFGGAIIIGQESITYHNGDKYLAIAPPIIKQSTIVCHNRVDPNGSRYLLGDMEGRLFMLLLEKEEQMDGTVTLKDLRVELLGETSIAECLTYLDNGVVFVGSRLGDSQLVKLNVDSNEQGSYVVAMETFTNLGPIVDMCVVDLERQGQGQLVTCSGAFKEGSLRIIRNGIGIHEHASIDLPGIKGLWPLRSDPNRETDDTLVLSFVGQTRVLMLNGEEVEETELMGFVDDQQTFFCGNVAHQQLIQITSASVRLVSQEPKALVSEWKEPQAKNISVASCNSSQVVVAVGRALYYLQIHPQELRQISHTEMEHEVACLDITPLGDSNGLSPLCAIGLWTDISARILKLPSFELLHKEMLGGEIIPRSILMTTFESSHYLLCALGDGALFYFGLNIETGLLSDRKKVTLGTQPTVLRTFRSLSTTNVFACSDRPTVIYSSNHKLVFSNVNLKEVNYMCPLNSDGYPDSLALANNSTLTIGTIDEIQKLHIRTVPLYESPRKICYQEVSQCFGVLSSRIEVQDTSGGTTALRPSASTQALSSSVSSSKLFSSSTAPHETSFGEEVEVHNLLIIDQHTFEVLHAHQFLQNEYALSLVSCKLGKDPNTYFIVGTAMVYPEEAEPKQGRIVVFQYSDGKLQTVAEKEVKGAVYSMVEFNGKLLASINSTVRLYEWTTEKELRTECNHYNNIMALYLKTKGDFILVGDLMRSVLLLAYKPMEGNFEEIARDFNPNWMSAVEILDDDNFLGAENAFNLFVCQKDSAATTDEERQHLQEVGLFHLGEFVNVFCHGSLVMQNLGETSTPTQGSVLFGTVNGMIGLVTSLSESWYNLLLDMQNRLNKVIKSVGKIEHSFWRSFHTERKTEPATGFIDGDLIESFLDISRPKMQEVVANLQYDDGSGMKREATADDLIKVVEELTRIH
Chain of DCAF15/RBM39 (Q66K64 whole entry, species assumed): as the sequence (Q66K64 whole entry) above
Chain of DCAF15/RBM39 (Q14498 whole entry, species assumed): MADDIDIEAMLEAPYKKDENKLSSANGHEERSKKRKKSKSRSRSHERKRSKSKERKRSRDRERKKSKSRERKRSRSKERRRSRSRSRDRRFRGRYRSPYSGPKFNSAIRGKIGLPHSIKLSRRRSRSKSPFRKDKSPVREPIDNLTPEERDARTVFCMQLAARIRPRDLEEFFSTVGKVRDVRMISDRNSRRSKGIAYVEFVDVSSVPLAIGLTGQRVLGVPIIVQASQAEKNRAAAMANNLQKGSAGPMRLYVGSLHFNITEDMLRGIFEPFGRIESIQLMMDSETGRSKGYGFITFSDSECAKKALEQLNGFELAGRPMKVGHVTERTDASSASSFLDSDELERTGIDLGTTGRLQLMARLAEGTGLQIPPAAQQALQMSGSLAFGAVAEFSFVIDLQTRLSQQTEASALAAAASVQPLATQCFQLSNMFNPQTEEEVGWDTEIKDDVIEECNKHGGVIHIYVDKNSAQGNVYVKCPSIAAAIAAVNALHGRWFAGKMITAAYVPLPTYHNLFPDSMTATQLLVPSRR
Chain of DCAF15/RBM39 (Q16531 whole entry partner, species assumed): as the sequence (Q16531 whole entry partner) above

Row | Compound | EC50 (DCAF15/RBM39) [nM] | IC50 (DCAF15) [nM]
1 | O=C1NCCc2ccc(S(=O)(=O)Nc3ccc(Cl)c4c(Cl)c[nH]c34)cc21 [Compound 34] | 1000 to 10000 | 1000 to 10000
2 | O=C1CCc2cc(S(=O)(=O)Nc3ccc(Cl)c4c(Cl)c[nH]c34)c(F)cc2N1 [Compound 35] | 1000 to 10000 | 1000 to 10000
3 | O=S(=O)(Nc1ccc(Cl)c2c(Cl)c[nH]c12)c1cc(Br)c2c(c1)OCCO2 [Compound 38] | 1000 to 10000 | 1000 to 10000
4 | CN1Cc2cc(S(=O)(=O)Nc3ccc(Cl)c4c(Cl)c[nH]c34)ccc2OC1=O [Compound 41] | ≤ 1000 | 1000 to 10000
5 | CC(C)(C)OC(=O)N1CCCc2cc(S(=O)(=O)Nc3ccc(Cl)c4c(Cl)c[nH]c34)ccc2C1 [Compound 47] | ≤ 1000 | 1000 to 10000
6 | O=C1NCCOc2ccc(S(=O)(=O)Nc3ccc(Cl)c4c(Cl)c[nH]c34)cc21 [Compound 48] | ≤ 1000 | 1000 to 10000
7 | O=C1CCSc2ccc(S(=O)(=O)Nc3ccc(Cl)c4c(Cl)c[nH]c34)cc2N1 [Compound 49] | ≤ 1000 | 1000 to 10000

Other lines, results leading:

Row | EC50 (DCAF15/RBM39) [nM] | IC50 (DCAF15) [nM] | Compound
8 | ≤ 1000 | 1000 to 10000 | CC1(C)CC(=O)Nc2ccc(S(=O)(=O)Nc3ccc(Cl)c4c(Cl)c[nH]c34)cc21 [Compound 36]
9 | ≤ 1000 | 1000 to 10000 | O=c1ccc2cc(S(=O)(=O)Nc3ccc(Cl)c4c(Cl)c[nH]c34)ccc2[nH]1 [Compound 37]
10 | ≤ 1000 | 10000 to 100000 | O=C1COc2cc(S(=O)(=O)Nc3ccc(Cl)c4c(Cl)c[nH]c34)cnc2N1 [Compound 45]
